The text below walks through data of patent publication US20220163532A1, “NUCLEAR-DERIVED EXOSOMES AND METHODS OF USE THEREOF” (Board of Regents, The University of Texas System, priority 2019, published 2022).

In experiment [1] the test system is OVCAR-5 ovarian cancer model. The experiment can be described thus: MN quantification in tumor nodules of OVCAR-5 intraperitoneal model after topotecan. Format: in vivo, mouse. The settings on record: topotecan 7.5 mg/kg intraperitoneally, single dose, euthanized 48 hours later; vs vehicle control. The method, then:
In vivo experiments. For the in vivo mouse experiments, female athymic (NCr-nude) mice were purchased from Taconic Biosciences. Mice were cared for in accordance with the American Association for Assessment and Accreditation of Laboratory Animal Care and the U.S. Public Health Service policy on Humane Care and Use of Laboratory Animals. All studies and experiments that were performed were supervised and approved by the MD Anderson Institutional Animal Care and Use Committee. Mice were 10 to 15 weeks old at the time of tumor intraperitoneal cell injections. OVCAR-5 luciferase—labeled cells (1×10^6) were injected intraperitoneally into each mouse. […]
Human tumor samples and MN quantification. […] For MN identification and quantification, the Vectra Polaris platform (PerkinElmer) was used, and inForm software (PerkinElmer) was used to systematically count MN. After tissue segmentation, a number of nuclei in views were calculated by the cell segmentation process, and MN was defined as over 0.85 roundness and less than approximately 3 μm size (95 pixels in 96 dpi images), as shown in FIG. 3D.
To validate these findings in vivo, the OVCAR-5 ovarian cancer model, which represents disseminated peritoneal disease, was used. […] To calculate the number of MN, multiple IF images of tumor slides were taken, and MN were systematically counted by the Vectra—inForm Image Analysis System (PerkinElmer) (FIG. 3D).

Experiment [2] concerns OVCAR-5 ovarian cancer model. Description: nExos in serum and ascites of OVCAR-5 tumor-bearing mice by imaging flow cytometry. Format: in vivo, mouse. Conditions: topotecan 7.5 mg/kg vs vehicle control. From the text: Exosome staining for imaging flow cytometry and analysis. For quantitative analysis and imaging flow cytometry of exosomes, the method described by Erdbrugger et al. (2014) using an Amnis ImageStreamX MarkII analyzer was adapted. Briefly, 3×10^9 to 5×10^9 particles were isolated from either tissue culture cells, mouse serum and ascites, or serum obtained from patients with ovarian cancer and resuspended in PBS. Exosomes were placed in a sterile 1.5-ml Eppendorf tube and stained with CellMask Green Plasma Membrane (CMG) stain (1:250 dilution; C37608, Thermo Fisher Scientific) for 30 min at 37° C., protected from light. Exosomes were then washed to remove excess CMG by adding 2 ml of PBS and pelleted by ultracentrifugation at 40,000 rpm for 2 hours at 4° C. […]
To stain for dsDNA, CMG-stained exosomes were co-stained with DRAQ5 (62254, Thermo Fisher Scientific) at either 1:50 dilution for biofluid exosome samples or 1:250 dilution for cell culture samples and were lightly agitated at RT for 1 hour, protected from light. Samples were then placed on ice, and images of single exosomes were detected using the 60× objective of an Amnis ImageStreamX MarkII analyzer. […] Particle size was estimated using Invitrogen Flow Cytometry Submicron Particle Size Reference Beads (F13839, Thermo Fisher Scientific), allowing exclusion of particles <150 nm based on the signal detected from side scatter. […]

For `CC[C@@]1(O)C(=O)OCc2c1cc1n(c2=O)Cc2cc3c(CN(C)C)c(O)ccc3nc2-1` [topotecan], in experiment [1], the “MN-positive cell percentages in tumor” value is “trend toward an increased”. Moreover, the nExos in ascites result in experiment [2] (ascites, P=0.028) was “significant increase”. In addition, the nExos in serum entry in experiment [2] (serum) is “no difference”.
